Reference: US20240122865A1, “Methods of Protecting RNA” (Pfizer Inc., priority 2021, published 2024)

Legend:
Chi18 mRNA construct = assay: Size Exclusion Base Hydrolysis Degradation Assay, Chi18; format: biochemical, Trichoderma atroviride; settings: for T0 R1 peak area at 250 nm: Chi18 0.1 mg/mL, 25 mM amino acid, 50 mM CAPS, T=0, replicate 1; for T2 Avg, peak area as percentage of T=0 / T2 R1 peak area at 250 nm / T10 Avg, peak area as percentage of T=0 / T10 R1 peak area at 250 nm / T24 R1 peak area at 250 nm / T0 Avg, peak area as percentage of T=0 / T24 Avg, peak area as percentage of T=0: Chi18, 25 mM amino acid; for T2 Avg, peak area as percentage of T=0 / T2 R1 peak area at 250 nm / T10 Avg, peak area as percentage of T=0 / T10 R1 peak area at 250 nm / T24 R1 peak area at 250 nm / T24 Avg, peak area as percentage of T=0: 50 mM CAPS pH 11, room temperature; for T2 Avg, peak area as percentage of T=0 / T2 R1 peak area at 250 nm: 2 hrs; for T2 R1 peak area at 250 nm / T10 R1 peak area at 250 nm / T24 R1 peak area at 250 nm: replicate 1; for T10 Avg, peak area as percentage of T=0 / T10 R1 peak area at 250 nm: 10 hrs; for T24 R1 peak area at 250 nm / T24 Avg, peak area as percentage of T=0: 24 hrs; for T0 Avg, peak area as percentage of T=0: T=0 (reference)
Experimental: Basic assay procedure: RNA samples were diluted to 1.0 mg/mL in DNAase/RNAase free water. Amino acids were dissolved in water to a stock solution of 100 mM and a solution of 500 mM CAPS pH 11 was used. The two mRNA constructs tested were FgenL and Chi18. Each individual sample volume was 50 μL. To determine the amount of 1 M NaOH needed to adjust the final pH to 11.0 after the addition of all sample components, the sample volume was increased 100 fold (5 mL), the volume of 1 M NaOH recorded and this value was translated back down to the 50 μL sample volume.
The mRNA and amino acid were allowed to incubate for one hour prior to the addition of CAPS pH 11. All steps of the assay were conducted at room temperature.
Degradation reaction: After the CAPS addition, the samples were injected onto the Waters H-Class UPLC system to record the first timepoint, T=O. This resulting chromatogram was processed by integrating the area of absorbance at 250 nm for the mRNA construct. Immediately following this timepoint, the pH was adjusted to 11. Subsequent time points (2 hrs, 10 hrs, and 24 hrs) recorded the Absorbance Units (peak area) at 250 nm as a percentage of the peak area determined at T=O. Integration of the chromatogram for subsequent timepoints was conducted by analyzing the area of absorbance at 250 nm contained within the same time window in which the peak eluted in T=0 for the 100% intact mRNA.

HEK-293T cell monolayer = format: cell-based
VSV G pseudotyped virus = test system: VSV G pseudotyped virus; parameters: species or system BALB/c mice; settings: mouse

| Structure (SMILES) | T0 R1 peak area at 250 nm (Chi18 mRNA construct) | T2 Avg, peak area as percentage of T=0 (Chi18 mRNA construct) | T2 R1 peak area at 250 nm (Chi18 mRNA construct) | T10 Avg, peak area as percentage of T=0 (Chi18 mRNA construct) | T10 R1 peak area at 250 nm (Chi18 mRNA construct) | T24 R1 peak area at 250 nm (Chi18 mRNA construct) | T0 Avg, peak area as percentage of T=0 (Chi18 mRNA construct) | IVE of the Tris/Sucrose LNP formulation upon inclusion of glutamic acid (HEK-293T cell monolayer) | effect on in vitro expression (IVE) of the Tris/Sucrose LNP formulation (HEK-293T cell monolayer) | stabilization as measured by functional immunogenic response in vivo (VSV G pseudotyped virus) | T24 Avg, peak area as percentage of T=0 (Chi18 mRNA construct) |
| --- | --- | --- | --- | --- | --- | --- | --- | --- | --- | --- | --- |
| N[C@@H](CCC(=O)O)C(=O)O [Glutamic acid] | 19221 | 92.8% | 16514 | 151.2% | 6324 | 0 | 100.0% | 70% | improved | significant stabilization | – |
| N[C@@H](Cc1c[nH]c2ccccc12)C(=O)O [Tryptophan] | 8974 | 78.0% | 7000 | 47.7% | 3243 | 0 | 100.0% | – | – | – | 0.0% |
| N[C@@H](Cc1ccc(O)cc1)C(=O)O [Tyrosine] | 21493 | 90.9% | 22110 | 56.8% | 14946 | 10375 | 100.0% | – | – | – | 37.6% |
| CC(C)[C@H](N)C(=O)O [Valine] | 29804 | 56.7% | 12369 | 0.0% | 0 | 0 | 100.0% | – | – | – | 0.0% |
